≈ marks a conversion by molar mass, not a printed value. Where a SMILES comes first, the peptide text is derived from it. Bridges are numbered along the chain shown (N, C = ends). [ ]: non-standard residue; d: D form. The star is where a group is joined. Ileψ(thiazoline)Cys = CC[C@H](C)[C@H](N)C1=N[C@H](C(=O)*)CS1; dOrn = NCCC[C@@H](N)C(=O)O

One data set deals with VRE 2. Put plainly: microbe, parasite or virus in culture. The class given is cell-based, enterococci. To be noted: 18 h. The procedure:
(§1) This activity in terms of minimal inhibitory concentration (MIC) was determined by dilution and disk diffusion methods as per the Clinical and Laboratory Standards Institute (CLSI) guidelines for antimicrobial susceptibility testing. The examination of bacteria was conducted after incubation for 18 h at 37°C following inoculation of various test microorganisms, including methicillin-resistant Staphylococcus aureus (MRSA), vancomycin-resistant S. aureus (VRSA), or vancomycin-resistant enterococci (VRE). Control antibiotics were bacitracin and vancomycin.

In the next data set the test system is MSRA S1. Put plainly: microbe, parasite or virus in culture. The data set is classed as cell-based, Staphylococcus aureus. To be noted: 18 h. The procedure: as §1
In a further data set the test system is MRSA U4. Nature of the data set: microbe, parasite or virus in culture. The class given is cell-based, Staphylococcus aureus. The procedure:
as §1

A further data set relates to MRSA 4–5. Nature of the data set: microbe, parasite or virus in culture. The data set is classed as cell-based, Staphylococcus aureus. On the procedure:
as §1

Another data set deals with MRSA 639E. Nature of the data set: microbe, parasite or virus in culture. The class given is cell-based, Staphylococcus aureus. As to conditions: 18 h. On the procedure:
as §1

The test system of another data set is MRSA S3. Nature of the data set: microbe, parasite or virus in culture. The class given is cell-based, Staphylococcus aureus. On the procedure: as §1
The subject of another data set is MRSA P3. Nature of the data set: microbe, parasite or virus in culture. The class given is cell-based, Staphylococcus aureus. The procedure: as §1
The test system of another data set is MRSA 5–3. Put plainly: microbe, parasite or virus in culture. The class given is cell-based, Staphylococcus aureus. The procedure: as §1
A further data set has as its system VRE89. Put plainly: organism not typed. The class given is cell-based, enterococci. As to conditions: 18 h. The procedure:
as §1

The next data set concerns VRE5. Nature of the data set: organism not typed. The class given is cell-based, enterococci. To be noted: 18 h. The procedure:
as §1

A further data set has as its system VRE3. Put plainly: organism not typed. The class given is cell-based, enterococci. To be noted: 18 h. On the procedure: as §1
For a further data set, the system named is VRE82. Put plainly: organism not typed. The class given is cell-based, enterococci. As to conditions: 18 h. On the procedure:
as §1

The next data set relates to VRE6. Nature of the data set: organism not typed. The class given is cell-based, enterococci. To be noted: 18 h. The procedure:
as §1

Another data set relates to VRE4. Put plainly: organism not typed. The class given is cell-based, enterococci. To be noted: 18 h. The procedure: as §1
The test system of data set [1] is Bacillus subtilis ATCC 6633. The class given is cell-based. As to conditions: ATCC 6633, 18 h. On the procedure:
as §1

Data set [2] has as its system Staphylococcus aureus KCTC 1928. The data set is classed as cell-based. As to conditions: KCTC 1928, 18 h. On the procedure:
as §1

The test system of data set [3] is Enterococcus faecalis ATCC 29212. The class given is cell-based. As to conditions: ATCC 29212, 18 h. On the procedure:
as §1

Data set [4] relates to Pseudomonas aeruginosa KCTC 1637. The class given is cell-based. As to conditions: KCTC 1637, 18 h. The procedure: as §1
For data set [5], the system named is Escherichia coli KCTC 1923. The data set is classed as cell-based. As to conditions: KCTC 1923, 18 h. The procedure:
as §1

In another data set the test system is VRSA. Put plainly: microbe, parasite or virus in culture. The class given is cell-based, S. aureus. As to conditions: 18 h. The procedure:
as §1

In data set [6] the test system is Listeria monocytogenes KCTC3569. Nature of the data set: microbe, parasite or virus in culture. The class given is cell-based. To be noted: KCTC3569, 18 h. The procedure: as §1
For data set [7], the system named is Mycobacterium smegmatis ATCC 9341. Put plainly: microbe, parasite or virus in culture. The class given is cell-based. As to conditions: ATCC 9341, 18 h. The procedure: as §1
The test system of data set [8] is Micrococcus luteus ATCC 9341. Nature of the data set: microbe, parasite or virus in culture. The class given is cell-based. On the procedure: as §1
Data set [9] concerns Alcaligenes faecalis ATCC 1004. Put plainly: microbe, parasite or virus in culture. The class given is cell-based. The procedure:
as §1

Data set [10] concerns Salmonella typhimurium KCTC 1925. Put plainly: microbe, parasite or virus in culture. The class given is cell-based. On the procedure:
as §1

In another data set the test system is RAW 264.7 cells. Nature of the data set: Cell viability, MTT assay. The class given is cell-based, mouse. As to conditions: 5–100 μg/mL, 24 h; three independent experiments in triplicate. The procedure:
Cell viability was assessed using the 3-(4,5-dimethylthiazol-2-yl)-2,5-diphenyltetrazolium bromide (MTT) assay as described previously by Choi et al. (2016). For the cell viability assay, RAW 264.7 cells were seeded into a 96-well flat bottom microplate at a density of 2 × 10^4 cells per well and incubated at 37°C for 1 h. […] After 24 h of incubation, the medium was removed and wash in PBS once followed by 100 μl of MTT (5 mg/ml in PBS) solution was added to each well, and the plate was incubated for another 1 h. Then 100 μl of DMSO (100%) was added to dissolve the formazan crystals. Absorbance values were then measured at 450 nm using a microplate reader (Victor3, PerkinElmer).

Data set [11] deals with Propionibacterium acnes KCTC5933. Nature of the data set: Antimicrobial activity against anaerobic pathogens (mm). The data set is classed as cell-based. As to conditions: 48 h, mean ± SD, n = 3.
Data set [12] has as its system Clostridium difficile KCTC2251. The description is as above. The data set is classed as cell-based. As to conditions: 48 h, mean ± SD, n = 3.
Another data set relates to Mycobacterium smegmatis. Nature of the data set: microbe, parasite or virus in culture. The data set is classed as cell-based. To be noted: Mycolicibacterium smegmatis, ATCC9341, 18 h. On the procedure:
as §1

[13] abbreviates: Staphylococcus aureus, MRSA, 18 h.

On to `CC[C@H](C)[C@H](N)C1=N[C@H](C(=O)N[C@@H](CC(C)C)C(=O)N[C@H](CCC(=O)O)C(=O)N[C@H](C(=O)N[C@H]2CCCCNC(=O)[C@H](CC(N)=O)NC(=O)[C@@H](CC(=O)O)NC(=O)[C@H](Cc3cnc[nH]3)NC(=O)[C@@H](Cc3ccccc3)NC(=O)[C@H]([C@@H](C)CC)NC(=O)[C@@H](CCCN)NC2=O)[C@@H](C)CC)CS1` [Bacitracin] ({Ileψ(thiazoline)Cys}-L[dE]IK[dOrn]I[dF]H[dD]N; lactam 4-C (inferred); N-terminus assumed), for which the MIC was found to be 0.3125 µg/mL (≈ 0.22 µM) with VRE 2; 1.25 µg/mL (≈ 0.879 µM) in the data set on MSRA S1; 1.25 µg/mL (≈ 0.879 µM) with MRSA U4 (U4, 18 h); 1.25 µg/mL (≈ 0.879 µM) in the data set on MRSA 4–5 (4–5, 18 h); 40 µg/mL (≈ 28.1 µM) in the data set on MRSA 639E (639E); 1.25 µg/mL (≈ 0.879 µM) in the data set with MRSA S3 (S3, 18 h). Also, the MIC against MRSA P3 (P3, 18 h) stood at 1.25 µg/mL (≈ 0.879 µM); against MRSA 5–3 (5–3, 18 h), 1.25 µg/mL (≈ 0.879 µM); in the data set on VRE89, 40 µg/mL (≈ 28.1 µM); in the data set with VRE5, 1.25 µg/mL (≈ 0.879 µM); with VRE3, 20 µg/mL (≈ 14.1 µM); in the data set with VRE82 it was 40 µg/mL (≈ 28.1 µM). Moreover, the MIC in the data set on VRE6 was >80 µg/mL; against VRE4 it was 5 µg/mL (≈ 3.51 µM); in data set [1], 40 µg/mL (≈ 28.1 µM); in data set [2], 40 µg/mL (≈ 28.1 µM); in data set [3] it was 5 µg/mL (≈ 3.51 µM); in [4], >80 µg/mL. For the same compound, the MIC in [5] is >80 µg/mL; in the data set on VRSA it was >80 µg/mL; in data set [6], 0.3125 µg/mL (≈ 0.22 µM); in data set [7], >80 µg/mL; in data set [8] (ATCC 9341, 18 h), >80 µg/mL; in data set [9] (ATCC 1004, 18 h) it was >80 µg/mL. The MIC in data set [10] (KCTC 1925, 18 h) is >80 µg/mL.
For `CC[C@H](C)[C@H](N)C1=N[C@H](C(=O)N[C@@H](CC(C)C)C(=O)N[C@H](CCC(=O)O)C(=O)N[C@H](C(=O)N[C@H]2CCCCNC(=O)[C@H](CC(N)=O)NC(=O)[C@@H](CC(=O)O)NC(=O)[C@H](Cc3cnc[nH]3)NC(=O)[C@@H](Cc3ccccc3)NC(=O)[C@H]([C@@H](C)CC)NC(=O)[C@@H](CCCN)NC2=O)[C@@H](C)CC)CS1` [CSP32] ({Ileψ(thiazoline)Cys}-L[dE]IK[dOrn]I[dF]H[dD]N; lactam 4-C), the “Cytotoxicity toward RAW 264.7 cells (MTT)” value in the data set on RAW 264.7 cells is reported as “did not exert cytotoxicity”.
On to `CC[C@@]1([C@@H]2O[C@@H]([C@H]3O[C@@](O)(CO)[C@H](C)C[C@@H]3C)C[C@@H]2C)CC[C@H]([C@]2(C)CC[C@]3(C[C@H](O)[C@@H](C)[C@@H]([C@@H](C)[C@@H](OC)[C@H](C)C(=O)O)O3)O2)O1` [Monensin], for which the “Antimicrobial activity, Propionibacterium acnes (mm)” value in [11] (concentration 0.125 mg/mL) is 13.00±0.50 mm; in data set [11] (concentration 0.25 mg/mL), 15.17±0.29 mm; in data set [11] (concentration 0.5 mg/mL) it was 17.33±0.58 mm; in data set [11] (concentration 1 mg/mL), 17.17±0.29 mm. Moreover, the “Antimicrobial activity, Clostridium difficile (mm)” value in data set [12] (concentration 0.125 mg/mL) turned out to be 13.17±0.29 mm; in [12] (concentration 0.25 mg/mL), 13.00±0.50 mm; in data set [12] (concentration 0.5 mg/mL), 15.17±0.29 mm; in [12] (concentration 1 mg/mL), 17.33±0.29 mm.
In the case of `CN[C@H](CC(C)C)C(=O)N[C@H]1C(=O)N[C@@H](CC(N)=O)C(=O)N[C@H]2C(=O)N[C@H]3C(=O)N[C@H](C(=O)N[C@H](C(=O)O)c4cc(O)cc(O)c4-c4cc3ccc4O)[C@H](O)c3ccc(c(Cl)c3)Oc3cc2cc(c3O[C@@H]2O[C@H](CO)[C@@H](O)[C@H](O)[C@H]2O[C@H]2C[C@](C)(N)[C@H](O)[C@H](C)O2)Oc2ccc(cc2Cl)[C@H]1O` [Vancomycin], the MIC was > 80 µg/mL against VRE 2 (Enterococcus, VRE); 0.625 µg/mL (≈ 0.431 µM) in the data set on MSRA S1 (Staphylococcus aureus); 0.312 µg/mL (≈ 0.216 µM) with MRSA U4 (setting [13]); 0.312 µg/mL (≈ 0.216 µM) in the data set with MRSA 4–5 (setting [13]); 0.312 µg/mL (≈ 0.216 µM) with MRSA 639E (Staphylococcus aureus, MRSA); 0.312 µg/mL (≈ 0.216 µM) with MRSA S3 (setting [13]). Moreover, the MIC in the data set with MRSA P3 (setting [13]) was 0.625 µg/mL (≈ 0.431 µM); against MRSA 5–3 (setting [13]), 0.312 µg/mL (≈ 0.216 µM); against VRE89, > 80 µg/mL; with VRE5, > 80 µg/mL; with VRE3, > 80 µg/mL; against VRE82 it was > 80 µg/mL. In addition, the MIC is > 80 µg/mL in the data set on VRE6; > 80 µg/mL in the data set on VRE4; > 80 µg/mL against VRSA (Staphylococcus aureus, VRSA); 0.156 µg/mL (≈ 0.108 µM) in data set [6] (Listeria monocytogenes); 0.156 µg/mL (≈ 0.108 µM) in data set [8] (Micrococcus luteus, ATCC9341, 18 h); > 80 µg/mL in data set [9] (Alcaligenes faecalis, ATCC1004, 18 h). Further, the MIC was 0.312 µg/mL (≈ 0.216 µM) in the data set with Mycobacterium smegmatis and > 80 µg/mL in data set [10] (Salmonella enterica, 18 h).

The values above are taken from publication PMC5426640, “A novel multifunctional peptide oligomer of bacitracin with possible bioindustrial and therapeutic applications from a Korean food-source Bacillus strain” (PLoS ONE, 2017).
